Assay [1] has as its system TGF-β dependent luciferase production in Mv1Lu C1 cells (p3TP-Lux reporter). The assay is described as follows: MV1LU p3TP-Lux assay. It is filed as cell-based. To be noted: TGF-β1 10 pM, 16-20 hrs. An excerpt:
A stable Mv1Lu clone (C1) containing the p3TP-Lux reporter was created by standard transfection and puromycin selection protocols. This stable clone was used to screen the example compounds for their ability to inhibit TGF-β dependent luciferase production as briefly described below: • 1. Plated Mv1Lu C1 cells in Wallac™ Black Isoplates • 2. Allowed cells to adhere overnight. • 3. Removed media and replaced with 0.5% FBS DMEM media • 4. Added the compound dilution series in 0.5% FBS/DMEM containing 1% DMSO such that the final compound concentration ranged from 20 uM to 0.1 nM and the final DMSO concentration was 0.2%. • 5. Incubated at 37° C./5% CO2 for 2 hrs. • 6. Added 0.5% FBS/DMEM as control or TGF-β1 diluted in 0.5% FBS/DMEM (final concentration of 10 pM) to the −/+ TGF-β wells respectively • 7. Incubated for 16-20 hrs. at 37° C./5% CO2 • 8. Removed media and rinsed 1× with PBS. • 9. Removed PBS and lysed the cells with 1× Passive Lysis Buffer (Promega) at room temperature. • 10. Counted relative luciferase activity on the MicroBeta JET by injecting Luciferase Assay Reagent II (PROMEGA).
The use of the above assay in measuring TGF-β responsive activity is described in Wrana, et al. Cell 71: 1003-1014 (1992).

Assay [2] deals with T1, p38α/SAPK2α (Homo sapiens, UniProt Q16539).
T1 construct: purchased Upstate Biotechnology 14-251
T1 sequence (Q16539 whole entry): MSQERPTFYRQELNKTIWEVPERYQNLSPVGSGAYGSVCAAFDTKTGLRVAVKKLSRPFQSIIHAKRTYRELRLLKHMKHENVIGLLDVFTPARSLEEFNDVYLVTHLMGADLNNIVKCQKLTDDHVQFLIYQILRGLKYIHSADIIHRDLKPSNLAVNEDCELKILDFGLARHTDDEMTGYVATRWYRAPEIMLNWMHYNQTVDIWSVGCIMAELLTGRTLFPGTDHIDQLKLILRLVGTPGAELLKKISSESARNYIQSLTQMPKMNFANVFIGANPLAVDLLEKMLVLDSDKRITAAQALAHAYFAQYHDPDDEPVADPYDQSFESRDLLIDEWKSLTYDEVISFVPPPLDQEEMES
The assay is described as follows: p38α in vitro kinase assay. To be noted: 5 nM p38α, 62.5 uM EGFR substrate, 100 uM ATP, 30° C., 40 min. It counts as biochemical. How it is done: p38α in vitro Kinase Assay
Active p38α/SAPK2α was purchased from Upstate Biotechnology (cat#14-251). A known p38α substrate from EGFR was used in the assay (Young, et al. (1997) JBC 272: 12116-12121).
Reactions were performed in 1× kinase buffer (25 mM Tris-HCl pH 7.5, 5 mM β-glycerophosphate, 2 mM DTT, 0.1 mM Na3VO4, 10 mM MgCl2, 1 uM Microcystin) with 5 nM p38α, 62.5 uM substrate, 40 uM to 0.2 nM compound dilution series in 1×KB/16% DMSO (final 4% DMSO concentration). Reactions were started by addition of 100 uM ATP (final concentration) with 1 uCi ^33P-γ-ATP in 1×KB and incubated at 30° C. for 40 min. Reactions were stopped with H3PO4 and quantitated on Millipore PH phosphocellulose filter plates by liquid scintillation counting on a MicroBeta JET.

Assay [3] addresses T2, TGF-β Type II (RII WT) receptor (Homo sapiens, UniProt P37173).
T2 construct: The 6×-HIS tagged cytoplasmic kinase domain of each receptor was expressed and purified from Sf9 insect cell lysates; 6xHis; made in house; host or cells: Sf9 insect cells
T2 sequence (P37173 244-544 limits assumed): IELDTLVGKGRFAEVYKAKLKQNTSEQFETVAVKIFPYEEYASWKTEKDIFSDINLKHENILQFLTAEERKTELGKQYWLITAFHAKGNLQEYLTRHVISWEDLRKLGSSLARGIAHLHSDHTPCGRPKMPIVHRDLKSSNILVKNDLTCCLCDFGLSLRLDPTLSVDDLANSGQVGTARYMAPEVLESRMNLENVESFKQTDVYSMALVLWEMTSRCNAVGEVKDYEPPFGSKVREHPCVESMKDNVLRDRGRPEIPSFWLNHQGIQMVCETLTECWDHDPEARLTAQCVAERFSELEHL
The assay is described as follows: TGF-β Receptor II (RII WT) in vitro kinase reaction. It counts as biochemical. Particulars: 6×-HIS cytoplasmic kinase domain, 4 uM ATP, 30° C., 40 min. Here is the method: (§1) TGF-β Receptor I and II Purification and in vitro Kinase Reactions
(§2) For TGF-β Type I (RIT204D) and Type II (RII WT) Receptors: The 6×-HIS tagged cytoplasmic kinase domain of each receptor was expressed and purified from Sf9 insect cell lysates as briefly described below:
(§3) Cell pellets after 48-72 hrs of infection were lysed in lysis buffer (LB: 50 mM Tris pH 7.5, 150 mM NaCl, 50 mM NaF, 0.5% NP40 with freshly added 20 mM, β-mercaptoethanol, 10 mM imidazole, 1 mM PMSF, 1×EDTA-free Complete Protease Inhibitor (Boehringer Mannheim).
Cell lysates were clarified: by centrifugation and […] filtered prior to purification by Ni/NTA affinity chromatography (Qiagen).
Equilibrate with 10 CV of LB, load sample, wash with 10 CV RIPA buffer (50 mM Tris pH 7.5, 150 mM NaCl, 1% NP40, 1 mM EDTA, 0.25% sodium deoxycholate, added fresh 20 mM β-mercaptoethanol, 1 mM PMSF), wash with 10 CV LB, wash with 10 CV 1×KB (50 mM Tris pH 7.5, 150 mM NaCl, 4 mM MgCl2, 1 mM NaF, 2 mM β-mercaptoethanol), elute with a linear gradient of 1×KB containing 200 mM Imidazole.
Both enzymes were approximately 90% pure and had autophosphorylation activity.
(§4) Reactions: 170-200 nM enzyme in 1×KB, compound dilution series in 1×KB/16% DMSO (20 uM to 1 nM final concentration with 4% DMSO final concentration), reactions started by adding ATP mix (4 uM ATP/1 uCi ^33P-[…]-ATP final concentrations) in 1×KB.
(§5) Reactions were incubated at 30° C. for 1 hr RIT204D or 40 min for RII WT. Reactions were stopped and quantitated using standard TCA/BSA precipitation onto Millipore FB glass fiber filter plates and by liquid scintillation counting on a MicroBeta JET.

Assay [4] concerns the target T3, TGF-β Type I (RIT204D) receptor (Homo sapiens, UniProt P36897, T204D).
T3 construct: The 6×-HIS tagged cytoplasmic kinase domain of each receptor was expressed and purified from Sf9 insect cell lysates; 6xHis; made in house; host or cells: Sf9 insect cells
T3 sequence (P36897 148-503 T204D limits assumed): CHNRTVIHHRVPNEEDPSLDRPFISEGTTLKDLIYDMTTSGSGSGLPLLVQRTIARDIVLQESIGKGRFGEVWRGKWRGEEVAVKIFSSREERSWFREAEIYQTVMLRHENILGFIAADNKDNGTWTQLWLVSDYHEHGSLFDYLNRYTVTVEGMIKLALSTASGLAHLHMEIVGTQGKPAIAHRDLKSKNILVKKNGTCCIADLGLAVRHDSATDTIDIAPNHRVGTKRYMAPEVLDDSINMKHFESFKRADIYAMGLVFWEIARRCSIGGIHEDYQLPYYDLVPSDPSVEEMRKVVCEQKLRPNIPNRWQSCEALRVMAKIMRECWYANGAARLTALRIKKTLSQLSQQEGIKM
The assay is described as follows: TGF-β Receptor I (RIT204D) in vitro kinase reaction. It counts as biochemical. Particulars: 6×-HIS cytoplasmic kinase domain, 4 uM ATP, 30° C., 1 hr. Here is the method:
as §1, §2, §3, §4, §5

Molecules are shown by their SMILES.

As for `Cc1cccc(-c2nn3c(c2-c2ccnc4ccccc24)CC(c2ccc(F)cc2)C3)n1` (single isomer, unassigned) [4-[5-(4-Fluoro-phenyl)-2-(6-methyl-pyridin-2-yl)-5,6-dihydro-4H-pyrrolo[1,2-b]pyrazol-3-yl]-quinoline], the IC50 in assay [1] is less than 20 µM.
On the same count and under the same terms, the value for `Cc1cccc(-c2nn3c(c2-c2cccc4ccccc24)CCC3)n1` [2-(6-methyl-pyridin-2-yl)-3-naphthalen-1-yl-5,6-dihydro-4H-pyrrolo[1,2-b]pyrazole] was less than 20 µM.
`CN(C)CC(=O)Nc1ccc2c(-c3c(-c4ccccn4)nn4c3CCC4)ccnc2c1` [2-Dimethylamino-N-[4-(2-pyridin-2-yl-5,6-dihydro-4H-pyrrolo[1,2-b]pyrazol-3-yl)-quinolin-7-yl]-acetamide] gave an IC50 in assay [2] of less than 20 µM.
Regarding `Cc1cccc(-c2nn3c(c2-c2ccnc4ccc(C(C)(C)O)cc24)CCC3)n1` [2-{4-[2-(6-Methyl-pyridin-2-yl)-5,6-dihydro-4H-pyrrolo[1,2-b]pyrazol-3-yl]-quinolin-6-yl}-propan-2-ol], the IC50 in assay [1] was less than 20 µM.
Same read-out and setting: the value for `Clc1cc(-c2c(-c3ccccn3)nn3c2CCC3)ccn1` [3-(2-Chloro-pyridin-4-yl)-2-pyridin-2-yl-5,6-dihydro-4H-pyrrolo[1,2-b]pyrazole] was less than 20 µM.
Regarding `Cc1cccc(-c2nn3c(c2-c2ccc4c(c2)OCO4)CCC3)n1` [3-Benzo[1,3]dioxol-5-yl-2-(6-methyl-pyridin-2-yl)-5,6-dihydro-4H-pyrrolo[1,2-b]pyrazole], the concentration for half-maximal inhibition (IC50) in assay [2] was less than 20 µM.
Still for that read-out and setting: the value for `c1ccc(-c2nn3c(c2-c2ccc4ccccc4c2)CCC3)nc1` [3-Naphthalen-2-yl-2-pyridin-2-yl-5,6-dihydro-4H-pyrrolo[1,2-b]pyrazole] was less than 20 µM.
`OCCCSc1ccc2c(-c3c(-c4ccccn4)nn4c3CCC4)ccnc2c1` [3-[4-(2-Pyridin-2-yl-5,6-dihydro-4H-pyrrolo[1,2-b]pyrazol-3-yl)-quinolin-7-ylsulfanyl]-propan-1-ol]: the IC50 in assay [3] and in assay [2] was less than 20 µM throughout.
Take `CNC(=O)c1ccc2c(-c3c(-c4ccccn4)nn4c3CCC4)ccnc2c1` [4-(2-Pyridin-2-yl-5,6-dihydro-4H-pyrrolo[1,2-H]pyrazol-3-yl)-quinoline-7-carboxylic acid methylamide]: the IC50 in assay [3], in assay [4] and in assay [2] was less than 20 µM in each case.
The molecule `O=C(NCCc1c[nH]cn1)c1ccc2c(-c3c(-c4ccccn4)nn4c3CCC4)ccnc2c1` [4-(2-Pyridin-2-yl-5,6-dihydro-4H-pyrrolo[1,2-b]pyrazol-3-yl)-quinoline-7-carboxylic acid [2-(1H-imidazol-4-yl)-ethyl]-amide] displayed an IC50 in assay [2] of less than 20 µM.
Still for that read-out and setting: in the case of `Fc1ccc(-c2nn3c(c2-c2ccnc4ccccc24)CCC3)cc1` [4-[2-(4-Fluoro-phenyl)-5,6-dihydro-4H-pyrrolo[1,2-b]pyrazol-3-yl]-quinoline] it was less than 20 µM; in that of `Cc1cccc(-c2nn3c(c2-c2ccnc4ccc(C(=O)O)cc24)CCC3)n1` [4-[2-(6-Methyl-pyridin-2-yl)-5,6-dihydro-4H-pyrrolo[1,2-b]pyrazol-3-yl]-quinoline-6-carboxylic acid], less than 20 µM.
Same read-out and setting: the value for `Cc1cccc(-c2nn3c(c2-c2ccnc4ccc(-c5ccc(F)cc5)cc24)CCC3)n1` [6-(4-Fluoro-phenyl)-4-[2-(6-methyl-pyridin-2-yl)-5,6-dihydro-4H-pyrrolo[1,2-b]pyrazol-3-yl]-quinoline] was less than 20 µM; that for `CSc1ccc2nccc(-c3c(-c4ccccn4)nn4c3CCC4)c2c1` [6-Methylsulfanyl-4-(2-pyridin-2-yl-5,6-dihydro-4H-pyrrolo[1,2-b]pyrazol-3-yl)-quinoline] was less than 20 µM.
The molecule `c1ccc(-c2nn3c(c2-c2ccnc4cc(OCCCn5ccnc5)ccc24)CCC3)nc1` [7-(3-Imidazol-1-yl-propoxy)-4-(2-pyridin-2-yl-5,6-dihydro-4H-pyrrolo[1,2-b]pyrazol-3-yl)-quinoline] registered a concentration for half-maximal inhibition (IC50) in assay [2] of less than 20 µM.
Same read-out and setting: the value for `Cc1cccc(-c2nn3c(c2-c2ccnc4cc(N)ccc24)CCC3)n1` [7-Amino-4-[2-(6-Methyl-pyridin-2-yl)-5,6-dihydro-4H-pyrrolo[1,2-b]pyrazol-3-yl]-quinoline] was less than 20 µM; that for `COc1ccc2c(-c3c(-c4ccccn4)nn4c3CCC4)ccnc2c1` [7-Methoxy-4-(2-pyridin-2-yl-5,6-dihydro-4H-pyrrolo[1,2-b]pyrazol-3-yl)-quinoline] was less than 20 µM.
On the same count and under the same terms, the value for `CN1CCN(CCCOc2ccc3c(-c4c(-c5ccccn5)nn5c4CCC5)ccnc3c2)CC1` [7-[3-(4-Methyl-piperazin-1-yl)-propoxy]-4-(2-pyridin-2-yl-5,6-dihydro-4H-pyrrolo[1,2-b]pyrazol-3-yl)-quinoline] was less than 20 µM; that for `Cc1cccc(-c2nn3c(c2-c2ccc(F)cc2)CC[C@@H]3CC#N)n1` [(R)-[3-(4-Fluoro-phenyl)-2-(6-methyl-pyridin-2-yl)-5,6-dihydro-4H-pyrrolo[1,2-b]pyrazol-6-yl]-acetonitrile] was less than 20 µM.
Take `CN(C)CCCOc1ccc2c(-c3c(-c4ccccn4)nn4c3CCC4)ccnc2c1` [Dimethyl-{3-[4-(2-pyridin-2-yl-5,6-dihydro-4H-pyrrolo[1,2-b]pyrazol-3-yl)-quinolin-7-yloxy]-propyl}-amine]: the IC50 in assay [3] and in assay [4] was less than 20 µM in each case.
Take `CN(C)CCNC(=O)COc1ccc2c(-c3c(-c4ccccn4)nn4c3CCC4)ccnc2c1` [N-(2-dimethylamino-ethyl)-2-[4-(2-pyridin-2-yl-5,6-dihydro-4H-pyrrolo[1,2-b]pyrazol-3-yl)-quinolin-7-yloxy]-acetamide]: the IC50 in assay [3] and in assay [4] was less than 20 µM in each case.

Source of the values: patent US7087626B2, “Pyrrole derivatives as pharmaceutical agents” (Eli Lilly and Company, priority 2001, dated 2006).
